“And” between values parts separate entries of the source, which are not always exact repeats. Equal values may be shown once. Numbers after ± are expanded uncertainties.
Conditions: Liquid, Closed cell (Static) method

FC(F)(F)/C=C/Cl [(E)-1-chloro-3,3,3-trifluoroprop-1-ene]
Conditions	vapor or sublimation pressure
234.15 K	7.2 ± 1 kPa
237.15 K	8.5 ± 1 kPa
240.15 K	10 ± 1 kPa
243.15 K	11.7 ± 1 kPa
246.15 K	13.7 ± 1 kPa
249.15 K	16 ± 1 kPa
252.15 K	18.6 ± 1 kPa
255.15 K	21.6 ± 1 kPa
258.15 K	25 ± 1 kPa
261.15 K	28.8 ± 1 kPa
264.15 K	33.1 ± 1 kPa
267.15 K	38 ± 1 kPa
270.15 K	43.4 ± 1 kPa
273.15 K	49.4 ± 1 kPa
276.15 K	56.1 ± 1 kPa
279.15 K	63.6 ± 1 kPa
282.15 K	71.7 ± 1 kPa
285.15 K	80.7 ± 1 kPa
288.15 K	90.6 ± 1 kPa
291.15 K	101.7 ± 1 kPa
293.15 K	108.8 ± 1 kPa
294.15 K	113.6 ± 1 kPa
295.15 K	117.2 ± 1 kPa
297.15 K	126 ± 1 kPa and 126.6 ± 1 kPa and 126.4 ± 1 kPa
299.15 K	135.1 ± 1 kPa
300.15 K	140.5 ± 1 kPa
301.15 K	144.9 ± 1 kPa
303.15 K	155.3 ± 1 kPa and 155.9 ± 1 kPa
305.15 K	166.3 ± 1 kPa
306.15 K	172.6 ± 1.1 kPa
307.15 K	177.8 ± 1.1 kPa
309.15 K	190.1 ± 1.1 kPa and 190.6 ± 1.1 kPa
311.15 K	202.9 ± 1.1 kPa
312.15 K	210 ± 1.1 kPa
313.15 K	216.1 ± 1.1 kPa
315.15 K	230.1 ± 1.1 kPa and 230.9 ± 1.1 kPa
317.15 K	245 ± 1.1 kPa
318.15 K	253.5 ± 1.1 kPa
319.15 K	260.7 ± 1.1 kPa
321.15 K	277.1 ± 1.1 kPa and 277.7 ± 1.1 kPa
323.15 K	296.3 ± 1.1 kPa and 294.3 ± 1.1 kPa
324.15 K	303.6 ± 1.1 kPa
325.15 K	312.2 ± 1.1 kPa
327.15 K	331 ± 1.2 kPa and 331.3 ± 1.2 kPa
329.15 K	350.5 ± 1.2 kPa
330.15 K	361 ± 1.2 kPa
331.15 K	371 ± 1.2 kPa
333.15 K	392.5 ± 1.2 kPa and 392.6 ± 1.2 kPa
335.15 K	413.9 ± 1.2 kPa
336.15 K	426.2 ± 1.2 kPa
337.15 K	437.2 ± 1.3 kPa
339.15 K	461.2 ± 1.3 kPa and 461.9 ± 1.3 kPa
341.15 K	486.3 ± 1.3 kPa
342.15 K	499.8 ± 1.3 kPa
343.15 K	513.2 ± 1.3 kPa
345.15 K	540.4 ± 1.4 kPa and 540 ± 1.4 kPa
347.15 K	568.5 ± 1.4 kPa
348.15 K	582.7 ± 1.4 kPa
349.15 K	597.9 ± 1.4 kPa
351.15 K	628.7 ± 1.5 kPa and 628.1 ± 1.5 kPa
353.15 K	660.4 ± 1.5 kPa
354.15 K	675.8 ± 1.5 kPa
357.15 K	726.3 ± 1.6 kPa
360.15 K	779.6 ± 1.6 kPa
363.15 K	835.8 ± 1.7 kPa
366.15 K	894.8 ± 1.8 kPa
369.15 K	957.1 ± 1.9 kPa
372.15 K	1022.5 ± 2 kPa
375.15 K	1091.3 ± 2 kPa
